Source: EP0463514B1, “3.3'-Dithiobis (propionic acids) and esters thereof” (priority 1990, dated 1992)
Marks after values point to notes of the source that are not given here.

Tested on: delayed type hypersensitivity (DTH) reaction
Assay: Delayed type hypersensitivity (DTH) reaction in the mouse, OXA sensitization and ear challenge, ear thickness
Assay type: in vivo, Balb/c mice
Conditions: oral feeding from sensitization to Day 6, 100 = doubled ear thickness; for % Increase, 48h: increase in ear thickness 48 hours after OXA challenge
Text: The property of the compounds of the invention to stimulate immune responses are illustrated by their efficacy in a model in the mouse of the delayed type hypersensitivity (DTH) reaction.
Both male and female Balb/c mice obtained from Bomhotsgaard (Denmark) and Charlie Rivers (England), were used at the weight of 18-20 gram. 4-ethoxymethylene-2-phenyloxazolone (OXA) was purchased from BDH (England) and served as an antigen in this test.
The mice were sensitized, Day 0, by epicutaneous application of 150 ul absolute ethanol-acetone (3:1) solution containing 3% OXA on the shaved thorax and abdomen. Treatment with the compound under examination, DiNAC (as a positive control) or vehicle (phosphate buffer, pH 7.0) was initiated by oral feeding immediately after sensitization and contiuned once to Day 6. […] (Day 6) after the sensitization both ears of all mice were challenged on both sides by topical application of 20 ul 1% OXA dissolved in olive oil. Ear thickness was measured prior to and 24 or 48 hours after challenge using an Oditest spring calliper. Challenges and measurements were performed under light pentobarbital anaesthesia. The intensity of the DTH reactions was expressed according to the formula: Tt24/48-Tt0 um units, where t0 and t24/48 represent the ear thickness before and 24 or 48 hours after challenge, respectively, in individual test (T). The results were expressed as the mean+/-S.E.M. The level of significance between means of the groups was obtained by Student's two-tailed t-test. […] A figure of 100 thus indicates a doubled ear thickness.

CCCCCCCC(=O)N[C@@H](CSSC[C@H](NC(=O)CCCCCCC)C(=O)OCC)C(=O)OCC [Example 11, (R,R)-N,N'-di(1-oxo-octyl)-3,3'-dithiobis(2-aminopropionic acid)diethylester]
% Increase, 48h (0.03 »mol/kg): 0%
% Increase, 48h: 0%

CC(C)(C)C(=O)N[C@@H](CSSC[C@H](NC(=O)C(C)(C)C)C(=O)O)C(=O)O [Example 21, (R,R)-N,N'-di(2,2-dimethylpropionyl)-3,3'-dithiobis(2-aminopropionic acid)]
% Increase, 24h (increase in ear thickness 24 hours after OXA challenge, 0.03 »mol/kg): 14* %
% Increase, 48h (0.03 »mol/kg): 26* %
% Increase, 48h: 27* %

CCCCCCCC(=O)N[C@@H](CSSC[C@H](NC(=O)CCCCCCC)C(=O)OC)C(=O)OC [Example 10, (R,R)-N,N'-di(1-oxo-octyl)-3,3'-dithiobis-(2-aminopropionic acid)dimethylester]
% Increase, 48h (0.03 »mol/kg): 28** %
% Increase, 48h: 20* %

COC(=O)[C@H](CSSC[C@H](NC(=O)C(C)C)C(=O)OC)NC(=O)C(C)C [Example 14, (R,R)-N,N'-di(2-methylpropionyl)-3,3'-dithiobis(2-aminopropionic acid)dimethylester]
% Increase, 48h (0.03 »mol/kg): 17* %
% Increase, 48h: 27*** %

CC(C)C(=O)N[C@@H](CSSC[C@H](NC(=O)C(C)C)C(=O)O)C(=O)O [Example 16, (R,R)-N,N'-di(2-methylpropionyl)-3,3'-dithiobis(2-aminopropionic acid)]
% Increase, 48h (0.03 »mol/kg): 27** %
% Increase, 48h: 62*** %

CCCCCC(=O)N[C@@H](CSSC[C@H](NC(=O)CCCCC)C(=O)OC)C(=O)OC [Example 9, (R,R)-N,N'-dihexanoyl-3,3'-dithiobis(2-aminopropionic acid)dimethylester]
% Increase, 48h (0.03 »mol/kg): 51*** %
% Increase, 48h: 45*** %

CC(=O)N[C@@H](CSSC[C@H](NC(=O)C(C)(C)C)C(=O)O)C(=O)O [Example 20, (R,R)-N-Acetyl-N'-(2,2-dimethylpropionyl)-3,3'-dithiobis(2-aminopropionic acid)]
% Increase, 48h (0.03 »mol/kg): 14%
% Increase, 48h: 17* %
